In US11058696B2, “Substituted bicyclic compounds” (BRISTOL-MYERS SQUIBB COMPANY, priority 2014, dated 2021):

Key:
[1] = system: spontaneous lupus, anti-dsDNA antibodies and kidney histology; assay: MRL/lpr Lupus Model; type: in vivo; conditions: MRL/lpr mice, p.o. daily
Source text: MRL/lpr Lupus Model: MRL/lpr is a spontaneous model of lupus. Male MRL/lpr mice (Jackson Laboratory) at the age of 12-14 weeks were enrolled for the study (N=12). […] Mice were bled every other week for anti-dsDNA antibodies measured by ELISA using pooled serum from diseased MRL/lpr mice as a positive comparator in each assay. The data were expressed in arbitrary units as a ratio of the titer of the test serum to the titer of the pooled MRL/lpr immune serum. At the end of study, one kidney was collected into 10% neutral buffered formalin and ZincTris fixatives. Fixed tissues were processed into paraffin blocks, sectioned at 3 μm, and stained with H&E or PASH. Kidney sections were graded using following criteria: Glomerular Damage: 1. Mesangial matrix thickening, cell proliferation, 2. Crescent formation, cellular deposits/casts in Bowman's space, 3. Cellular infiltration, mononuclear cells in glomerular tufts, 4. Fibrosis of Bowman's capsule. Tubular damage: 1. Infiltration of mononuclear cells, 2. Severity of tubular damage, 3. Protein casts. Tubulo-interstitial damage: 1. Fibrosis, 2. Infiltration of mononuclear cells. Each subcategory was assigned a score from 0-4, with the scores for glomerular indices representing the mean from 20 glomeruli per kidney. The total score for each mouse was the sum of the above 9 subcategories, with the highest possible score=36.

[2] = molecular target: S1P1 (membranes prepared from S1P1/CHO cells) (Homo sapiens (Human), UniProt P21453); assay: Receptor [35S] GTPγS Binding Assay (S1P1 GTPγS); type: biochemical; conditions: GTPγS S1P1 versus GTPγS S1P3 binding assays
Chain of S1P1 (membranes prepared from S1P1/CHO cells) (P21453 whole entry): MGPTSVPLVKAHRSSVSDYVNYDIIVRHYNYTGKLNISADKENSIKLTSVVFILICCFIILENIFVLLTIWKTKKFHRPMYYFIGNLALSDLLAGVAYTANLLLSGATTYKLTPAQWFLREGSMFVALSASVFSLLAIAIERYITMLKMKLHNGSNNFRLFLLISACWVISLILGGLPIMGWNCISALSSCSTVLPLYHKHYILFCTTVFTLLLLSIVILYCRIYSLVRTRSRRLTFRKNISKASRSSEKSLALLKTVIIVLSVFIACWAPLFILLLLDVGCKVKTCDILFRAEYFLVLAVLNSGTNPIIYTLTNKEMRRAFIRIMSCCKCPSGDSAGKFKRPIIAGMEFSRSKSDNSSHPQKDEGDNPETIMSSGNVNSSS
Protocol: Receptor [^35S] GTPγS Binding Assays: (S1P1 GTPγS/S1P3 GTPγS)
Compounds were loaded in a 384 Falcon v-bottom plate (0.5 μl/well in a 11 point, 3-fold dilution). Membranes prepared from S1P1/CHO cells or EDG3-Gal5-bla HEK293T cells (EDG3 equivalent S1P3) were added to the compound plate ([…], final protein 3 μg/well) with MULTIDROP®. [^35S]GTP (1250 Ci/mmol, Perkin Elmer) was diluted in assay buffer: 20 mM HEPES, pH7.5, 10 mM MgCl2, 150 mM NaCl, 1 mM EGTA (ethylene glycol tetraacetic acid), 1 mM DTT (Dithiothreitol), 10 μM GDP, 0.1% fatty acid free BSA, and 10 μg/ml Saponin to 0.4 nM. 40 μl of the [^35S] GTP solution was added to the compound plate with a final concentration of 0.2 nM. The reaction was kept at room temperature for 45 min. At the end of incubation, all the mixtures in the compound plate were transferred to Millipore 384-well FB filter plates via the VELOCITY11® Vprep liquid handler. The filter plate was washed with water 4 times by using the manifold Embla plate washer and dried at 60° C. for 45 min. MicroScint 20 scintillation fluid (30 μl) was added to each well for counting on the Packard TOPCOUNT®.
A larger value for the GTPγS S1P3 EC50 value indicated less activity in the GTPγS S1P3 binding assay.

SMILES	inhibition of disease progression as measured by anti-dsDNA titers and kidney histology [1]	activity as an agonist of S1P1 and selectivity over S1P3 [2]
COc1ccccc1CC[C@@H]1CCc2cc([C@H]3CC[C@](N)(CO)C3)ccc2C1 [Example 681, ((1R,3S)-1-amino-3-((S)-6-(2-methoxyphenethyl)-5,6,7,8-tetrahydronaphthalen-2-yl)cyclopentyl)methanol]	showed inhibition of disease progression	–
COCCCCCC1CCc2cc([C@H]3CC[C@](N)(COP(=O)(O)O)C3)ccc2C1 (single isomer, unassigned) [Example 689]	–	possessed activity as an agonist of S1P1 and is selective over S1P3
